These are literature values, as cited in patent publication CN110812364A, “半乳寡糖及其衍生物在作为SGLTs抑制剂中的应用” (Ocean University of China, priority 2019, dated 2020).

The series concerns the target T1, SGLT2 (Homo sapiens, UniProt P31639).
T1 sequence (P31639 1-672): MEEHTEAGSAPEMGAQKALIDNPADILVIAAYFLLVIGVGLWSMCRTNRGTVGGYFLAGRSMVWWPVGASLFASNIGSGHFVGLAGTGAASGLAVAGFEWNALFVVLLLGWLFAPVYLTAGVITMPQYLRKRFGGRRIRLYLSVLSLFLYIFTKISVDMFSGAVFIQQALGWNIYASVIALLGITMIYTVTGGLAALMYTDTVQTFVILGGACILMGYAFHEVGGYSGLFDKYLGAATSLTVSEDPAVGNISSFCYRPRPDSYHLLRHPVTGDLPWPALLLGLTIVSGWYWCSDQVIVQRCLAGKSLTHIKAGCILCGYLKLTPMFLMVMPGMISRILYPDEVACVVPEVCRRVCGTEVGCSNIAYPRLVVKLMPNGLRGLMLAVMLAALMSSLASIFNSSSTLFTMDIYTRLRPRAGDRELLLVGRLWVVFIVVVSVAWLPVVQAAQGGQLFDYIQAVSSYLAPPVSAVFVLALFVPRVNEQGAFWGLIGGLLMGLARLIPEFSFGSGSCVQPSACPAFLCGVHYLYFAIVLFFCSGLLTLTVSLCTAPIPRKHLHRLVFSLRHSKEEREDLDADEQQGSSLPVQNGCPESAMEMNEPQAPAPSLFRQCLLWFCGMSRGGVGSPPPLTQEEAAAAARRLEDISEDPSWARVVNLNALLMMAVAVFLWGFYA
As to conditions: dual inhibitor of SGLT1 and SGLT2, background section.

For `O=C(CCc1ccc(O)cc1)c1c(O)cc(O)cc1O[C@@H]1O[C@H](CO)[C@@H](O)[C@H](O)[C@H]1O` [根皮苷, 根皮苷(phloridzin)], the “selectivity for SGLT1 and SGLT2” value was “选择性较差”.
